Experiments:
Type in all cases: physicochemical
solubility in solvents = conditions: in saturated hydrocarbons (n-pentane, n-hexane, n-heptane) and water
Source text: Conventional organic solvents known to persons skilled in the art may be used as solvents in a solution of this type, in particular alcohols such as methanol, ethanol, 1-propanol and 2-propanol, esters such as ethyl acetate, ketones such as acetone and ethylmethyl ketone, ethers such as diethyl ether, tert-butyl methyl ether, 1,4-dioxane and tetrahydrofuran, nitriles such as acetonitrile, chlorinated hydrocarbons such as dichloromethane, aromatic hydrocarbons such as toluene, and also dimethyl formamide and dimethyl sulfoxide.

[1] = physical stability of amorphous modification (Example 7)
Experimental: Attempts were made to produce the amorphous modification of (1R,2R)-3-(3-dimethylamino-1-ethyl-2-methyl-propyl)-phenol by evaporation, lyophilization or melting.
7.1) 150 mg (1) were dissolved in 3 ml MeOH. The solvent was removed on a rotary evaporator. A colourless oil remained. The residue was dried in a vacuum.
7.2) 150 mg (1) were dissolved in 2 ml 1,4-dioxane. The solvent was removed by freeze-drier.
7.3) 150 mg (1) were dissolved in 2 ml 1,4-dioxane. The solvent was removed by freeze-drier (−85° C., 0.5 mbar). A colourless residue remained and crystallized spontaneously before it was possible to perform a PXRD analysis. […] The melt was frozen with dry ice. An amorphous film was obtained which crystallized within 1 hour.

[2] = crystallization of amorphous oily residues on storage (Example 1); conditions: stored at RT or at 5° C.
Experimental: Amorphous (1R,2R)-3-(3-dimethylamino-1-ethyl-2-methyl-propyl)-phenol was obtained by rapid evaporation of a solution of the compound on a rotary evaporator. The oily residues were stored at RT or at 5° C. All the samples crystallized within 24 hours.

[3] = dynamic vapor sorption (DVS); conditions: 25° C.; for changes in mass (DVS): dynamic mode, 5% relative air humidity/hour; for hygroscopicity: DVS
Experimental: Crystalline modifications A and B of (1R,2R)-3-(3-dimethylamino-1-ethyl-2-methyl-propyl)-phenol were each characterized by dynamic vapor sorption (DVS). The analyses were recorded in dynamic mode (5% relative air humidity/hour).
The DVS cycles are reversible.

[4] = rate of dissolution in water, second determination (tablets); conditions: for rate of dissolution: tablets, in water
Experimental: (§1) To analyse the rate of dissolution of modifications A and B in water, two different determinations were carried out.

[5] = mechanical stress: ball mill grinding and tablet compaction (Example 8); conditions: for modification obtained after tablet compaction: IR tablet press, pressure 10 t, 30 min; for modification obtained after grinding in ball mill: shaking frequency 30 sec^-1, RT, 2x90 min, 1x60 min
Experimental: The effect of mechanical stress from grinding with a ball mill (model Retsch MM200, agate vessel and agate ball with 5 mm diameter) and from pressure during the production of a tablet was analysed.
8.1) A tablet was produced with 100 mg (1) on an IR tablet press (pressure 10 t, 30 min).
8.4) 15 mg of the crystalline form A were ground in a ball mill (shaking frequency: 30 sec^−1, RT) as follows: 2×90 min, 1×60 min, 2×30 min discontinuation.

[6] = rate of dissolution in water, first determination (stirred suspension); conditions: particle size distribution not taken into account
Experimental: as §1
Under these conditions, the particle size affects the result.

[7] = relative thermodynamic stability, suspension of mixtures of modifications A and B (Example 9); conditions: temperature range of 5-85° C., preferably 5-50° C.
Experimental: The suspension was shaken overnight in an Eppendorf Thermomixer at RT. The obtained solid was filtered out and characterized by FT Raman spectral analysis. […] The suspension was shaken overnight in an Eppendorf Thermomixer at RT. The resulting solid was filtered out and characterized by FT Raman spectral analysis. […] The suspension was stirred for three days at 5° C. The obtained solid was filtered out and characterized by FT Raman spectral analysis. […] The suspension was stirred overnight at 50° C. […] All solid components were dissolved. After cooling to RT, small amounts of a colourless solid were precipitated. The solvent was removed in a nitrogen flow. […]

[8] = suspension of modification B in various solvents (Example 6); conditions: 2 days; for modification obtained after suspension: stirred at RT
Experimental: It was possible to exclude the formation of solvates with the selected solvents.
6.1) 200 mg (1) were suspended in 500 μl TBME. The mixture was stirred at RT for a duration of 2 days and the resulting solid was filtered out.
6.2) 100 mg (1) were suspended in 500 μl heptane/TBME (1:1). The mixture was stirred at RT for a duration of 2 days and the resulting solid was filtered out.
6.3) 100 mg (1) were suspended in 500 μl H2O. The mixture was stirred at RT for a duration of 2 days and the resulting solid was filtered out.
6.4) 100 mg (1) were suspended in 500 μl IPE. The mixture was stirred at RT for a duration of 2 days and the resulting solid was filtered out.
6.5) 100 mg (1) were suspended in 500 μl H2O/EtOH. The mixture was stirred at RT for a duration of 2 days and the resulting solid was filtered out.

CC[C@@H](c1cccc(O)c1)[C@@H](C)CN(C)C [(1R,2R)-3-(3-dimethylamino-1-ethyl-2-methyl-propyl)-phenol]
solubility (solubility in solvents): only poorly soluble

CC[C@@H](c1cccc(O)c1)[C@@H](C)CN(C)C [amorphous modification, (1R,2R)-3-(3-dimethylamino-1-ethyl-2-methyl-propyl)-phenol]
crystallization of amorphous samples ([1]; amorphous samples from evaporation, lyophilization or melting): crystallized within hours
time until amorphous film crystallized ([1]; melted at 88-91° C., melt frozen with dry ice): ≤ 1 h
time until amorphous oily residues crystallized [2]: ≤ 24 h

CC[C@@H](c1cccc(O)c1)[C@@H](C)CN(C)C [modification A, (1R,2R)-3-(3-dimethylamino-1-ethyl-2-methyl-propyl)-phenol]
changes in mass (DVS) [3]: 0.8%
hygroscopicity [3]: not or at most slightly hygroscopic
polymorphic conversion during dissolution determination ([4]; tablets in water, analysed with FT Raman): converted into form B
rate of dissolution [4]: 0.003 mg/min cm^2
modification obtained after tablet compaction [5]: Modification A
modification obtained after grinding in ball mill [5]: converted into modification B
modification obtained after grinding in ball mill ([5]; listed as form A): Modification B

CC[C@@H](c1cccc(O)c1)[C@@H](C)CN(C)C [modification B, (1R,2R)-3-(3-dimethylamino-1-ethyl-2-methyl-propyl)-phenol]
changes in mass (DVS) [3]: 0.3%
hygroscopicity [3]: not or at most slightly hygroscopic
rate of dissolution, comparison of forms [6]: dissolves more rapidly
rate of dissolution [4]: 0.003 mg/min cm^2
modification obtained after tablet compaction ([5]; listed as (1)): Modification B
modification obtained after grinding in ball mill [5]: Modification B
thermodynamic stability of the form [7]: most thermodynamically stable form
modification obtained after suspension ([8]; H2O): modification B
modification obtained after suspension ([8]; H2O/EtOH): modification B
modification obtained after suspension ([8]; IPE): modification B
modification obtained after suspension ([8]; TBME): modification B
modification obtained after suspension ([8]; heptane/TBME (1:1)): modification B
change upon suspension in various solvents ([8]; various solvents, RT): no change

Source: patent US8134032B2, “Crystalline modifications of (1R,2R)-3-(3-dimethylamino-1-ethyl-2-methyl-propyl)-phenol” (priority 2007, dated 2012)
